In the NIST ThermoML archive (doi:10.1016/j.jct.2015.05.019):
Numbers after ± are expanded uncertainties.

Assays:
[1] = Crystal; DTA
[2] = Molar enthalpy of transition or fusion; conditions: Crystal; DSC

Normal melting temperature [1]: 274.32 ± 0.5 °C
Molar enthalpy of transition or fusion [2]: 65.6 ± 13 kJ/mol
SMILES: O=c1c(-c2ccc(O)cc2)coc2cc(O[C@@H]3O[C@H](CO)[C@@H](O)[C@H](O)[C@H]3O)cc(O)c12 [genistin]
